{"source": "patent US20100029973A1", "about": "“Fatty acid analogues for equilibrating bone mineral density” (priority 2005, published 2010)", "key": {"[1]": {"system": "mitochondrial β-oxidation in the liver", "experiment": "activity of mitochondrial β-oxidation in the liver", "conditions": "fatty acid analogues with sulphur in 3, 5, 7 position vs palmitic acid control", "excerpt": "Although all fatty acid anagoges with an odd positioning of the β-oxidation blocker X away from the carboxylic end block β-oxidation, the extent of their biological effect may be variable. This is due to the difference in biological degradation time of the various compounds. The inventors have done experiments to show the effect of moving X further from the carboxylic fatty acid end. In these experiments the activity (in nmol/min/mg/protein) of mitochondrial β-oxidation in the liver of fatty acid analogues was measured with sulphur in the 3, 5 and 7 positions relative to the carboxyl end. The activities were 0.81 for sulphur in the 3rd position, 0.61 for sulphur in the 5th position, 0.58 for sulphur in the 7th position, and 0.47 for palmitic acid, the non β-oxidation blocking control. […] However, as the decline is great for going from the 3rd to 5th position, but small going from the 5th to 7th position, it is reasonable to assume that this decline will continue to be less as one moves out the chain, and thus that it will be very far out indeed before no effect (compared to the control) is seen at all."}, "femoral BMD": {"system": "femoral BMD", "experiment": "femoral BMD in rats by DXA", "format": "in vivo, rat", "conditions": "female Fischer rats, 50 mg/kg body weight, intragastric gavage, 4 months", "experimental": "Fifty female Fischer rats were divided into 5 groups and were given methocel (control group), Wyeth 14,643, fenofibrate, tetradecylthioacetic acid (TTA) and pioglitazone (50 mg/kg body weight) by intragastric gavage for 4 months. Body weight was registered throughout the study. BMD was measured by double x-ray absorptiometry (DXA). Histomorhometry of femur was performed, and mechanical strength in the femoral shaft and collum femoris was measured."}, "[2]": {"system": "preosteoblast cell line MC3T3-E1", "experiment": "release of OPG, RANKL and IL6 from preosteoblast cell line MC3T3-E1", "format": "cell-based", "conditions": "preosteoblasts (MC3T3-E1)", "excerpt": "The effect of the PPAR agonists on release of osteoprotegerin (OPG), RANKL and IL6 from the preosteoblast cell line MC3T3-E1 was investigated. […] Wyeth 14643, fenofibrate and TTA were also shown to stimulate OPG release and inhibit IL6 release from preosteoblasts, while no effects on RANKL could be detected."}, "[3]": {"system": "preosteoclast cell line RAW264.7", "experiment": "proliferation of preosteoclast cell line RAW264.7", "format": "cell-based"}, "human monocytes": {"system": "human monocytes", "experiment": "differentiation of human monocytes into osteoclasts", "format": "cell-based"}, "[4]": {"experiment": "degradation time in vivo of ω-oxidation-blocked fatty acid analogue", "conditions": "triple bond at methyl end blocking ω-oxidation", "excerpt": "ω-oxidation is believed to be the main pathway for degradation of the fatty acid analogues as described with a block in the X position. Experiments were thus performed where R′ was changed to block w-oxidation, by introducing a triple bond at the methyl end of the fatty acid analogue. […] This is important for the use of the fatty acid analogues in pharmaceutical preparation, as it may potentiate the effects of the β-oxidizable fatty acid analogues by further slowing down their breakdown."}}, "data": [{"smiles": "CCCCCCCCCCCCCCCC(=O)O", "note": "[palmitic acid]", "values": [{"measurement": "activity of mitochondrial β-oxidation in the liver", "setting": "[1]", "value": 0.47, "unit": "nmol/min/mg/protein"}]}, {"smiles": "CC(C)OC(=O)C(C)(C)Oc1ccc(C(=O)c2ccc(Cl)cc2)cc1", "note": "[fenofibrate]", "values": [{"measurement": "change in femoral BMD versus control rats", "setting": "femoral BMD", "value": 5.7, "unit": "%"}]}, {"smiles": "CCc1ccc(CCOc2ccc(CC3SC(=O)NC3=O)cc2)nc1", "note": "(stereo not drawn) [pioglitazone]", "values": [{"measurement": "change in femoral BMD versus control rats", "setting": "femoral BMD", "value": "−3", "unit": "%"}]}, {"smiles": "Cc1cccc(Nc2cc(Cl)nc(SCC(=O)O)n2)c1C", "note": "[Wyeth 14,643]", "values": [{"measurement": "change in femoral BMD versus control rats", "setting": "femoral BMD", "value": 7, "unit": "%"}, {"measurement": "IL6 release", "setting": "[2]", "value": "stimulated"}, {"measurement": "OPG release", "setting": "[2]", "value": "stimulated"}, {"measurement": "RANKL release", "setting": "[2]", "value": "no effects"}, {"measurement": "IL6 release", "setting": "[2]; listed as Wyeth 14643", "value": "inhibit"}, {"measurement": "OPG release", "setting": "[2]; listed as Wyeth 14643", "value": "stimulate"}, {"measurement": "proliferation of RAW264.7", "setting": "[3]", "value": "inhibited the proliferation"}, {"measurement": "differentiation of human monocytes into osteoclasts", "setting": "human monocytes", "value": "inhibit the differentiation of human monocytes into osteoclasts in a dose-dependent manner"}]}, {"smiles": "CC#CCCCCCCCCCCCSCC", "note": "[3-thia-15-heptadecyn]", "values": [{"measurement": "degradation time in vivo", "setting": "[4]", "value": "substantially increased degradation time in vivo"}]}]}
